Assay results from patent publication US20180371046A1, “Therapy for Lower Urinary Tract Dysfunctions” (University of Pittsburgh - Of the Commonwealth System of …, priority 2017, published 2018).
Entries after “also recorded” stand apart in the source; their conditions may differ.

Legend:
aged rat bladder [1] = assay: Length-tension studies and agonist/EFS responses of bladder strips from aged and adult rats; format: in vivo
Experimental: Adult (9 months old) and aged (24 months old) Fisher 344/Brown Norway F1 (F-344) male rats were used in this study. Six out of twelve rats in each age group were treated with relaxin (400 μg/kg/day) or vehicle which were infused by osmotic mini-pumps (ALZET) for 14 days, after which bladders were excised and cut from outlet to dome along the midline ventral and dorsal aspects to form two strips.
One strip was placed in a recording chamber with oxygenated Krebs solution. The base was pinned to a fixed platform and the dome connected to a tension transducer mounted on a programmable stepper motor. Bladder strips were stretched longitudinally in 500 μm increments and baseline tension allowed to stabilize (passive tension). Three field stimulation (20 Hz, 3 sec train, 0.5 ms pulse width, 15V output) contractions were performed at each stretch to determine active force generation.
(§1) Aged (24 month) and adult (9 month) male and female F344 rats were administered recombinant human relaxin-2 (400 μg/kg/day) or saline for 14-days via subcutaneous osmotic pumps. At the end of the treatment period, bladders were isolated. Contractile function was assessed in bladder muscle strips using length-tension relationship and responses to agonists and electrical field stimulation. Bladder wall morphology was examined in histological sections stained for collagen and elastin.
(§2) Aged (24 month) and adult (9 month) male and female F344 rats (obtained through the aged rodent colony of the National Institute on Aging) were administered recombinant hRLX2 (400 μg/kg/day) or saline for 14-days via subcutaneous osmotic pumps. At the end of the treatment period, bladders were isolated and contractile function assessed in organ bath experiments using muscle strips to measure length-tension relationships and responses to agonists and electrical field stimulation. Bladder wall morphology was examined in 3 μm-thick histological sections stained for collagen and elastin. The expression of the L-type Ca^2+ channel α-subunit, Cav1.2, and relaxin receptor subtypes, RXFP1 and RXFP2, were determined by immunohistochemistry.

[2] = test system: irradiated mouse bladder detrusor; assay: Length-tension profiles and contractile responses of irradiated mouse bladders after relaxin treatment; format: in vivo; details: relaxin treated
From the text: (§3) FIG. 5A-5D. Relaxin treatment improves detrusor contractility and reduces bladder fibrosis in mouse bladders with chronic stage radiation cystitis. FIG. 5A. Length-tension profiles from irradiated (9-weeks post exposure) mouse bladders with and without relaxin treatment. […] FIG. 5B. […] FIG. 5C. […] Expression of the L-type Ca^2+ channel subunit, CaV1.2, was examined by immunohistochemistry. […] FIG. 5D.
(§4) A mouse model was developed to mimic chronic radiation cystitis. As a surrogate to chronic radiation cystitis in the mouse, a laparotomy was performed where the bladder was briefly withdrawn for selective high dose (10 Gy) irradiation (FIG. 4(A)). Delivered to the pelvic region such a dose could be lethal (LD50≅8 Gy). […] Moreover, following spinal cord injury, rodents can develop detrusor-sphincter-dyssynergia (DSD) which also occurs in humans. […] This is the first application of relaxin to treat bladder dysfunction due to irradiation damage or any urinary tract disease. The data also are by far the most impressive reversal/treatment for radiation cystitis.

CaV1.2 [3] = assay: Immunohistochemistry of L-type Ca2+ channel subunit in irradiated mouse bladders; format: in vivo; details: relaxin treated, listed as relaxin
From the text: as §3, §4

[4] = test system: irradiated mouse bladder (chronic radiation cystitis); assay: Decerebrated cystometry with simultaneous EUS electromyography in the selective bladder irradiation (chronic radiation cystitis) mouse model; format: in vivo; details: mice 9 weeks after 10 Gy selective bladder irradiation
Experimental: FIG. 4. Cystometric and EUS electromyographic assessment of irradiated mice with and without relaxin treatment. A. Selective bladder irradiation model. B-D. Bladder and sphincter functions were assessed using decerebrated cystometry with simultaneous electromyography (EMG; green traces) at 9 weeks following bladder irradiation.
as §4

RXFP1 and RXFP2 receptor = details: Bathgate et al. 2013; cited from earlier work
Cav1.2 [5] = assay: Immunohistochemistry of Cav1.2 in aged rat bladders; format: in vivo; details: aged (24 month) rat bladders, 400 μg/kg/day for 14 days
From the text: FIG. 7. Expression of L-type Ca^2+ channels is increased in aged rat bladders following relaxin treatment. Immunohistological staining of aged (>24 month old) rat bladder sections for the L-type Ca^2+ channel al C subunit, Cav1.2α. Expression of Cav1.2α was increased in relaxin-treated rat bladders compared to sham controls, similar to that observed in irradiated mouse bladders (FIG. 5C). […] This emphasizes the heterogeneity of aging related bladder changes.
as §2

irradiated mouse bladder = assay: Histology and collagen quantification of irradiated mouse bladders; format: in vivo
From the text: as §3, §4

[6] = test system: aged rat prostate / urethra; assay: Histological sections of male rat urethras at the level of the prostate (aged rats, BPH); format: in vivo; details: hRLX2 treated vs control, preliminary studies
From the text: FIG. 21. Histological sections of male rat urethras—at the level of the prostate—from control and hRLX2 treated aged rats.
Benign Prostatic Hyperplasia is a non-malignant enlargement of the prostate and is a condition that frequently affects the elderly male population. BPH in humans can cause constriction of the urethra, outlet obstruction, inflammation, fibrosis and the development of LUTD (Bushman, W. A., et al.: The role of prostate inflammation and fibrosis in lower urinary tract symptoms. Am J Physiol Renal Physiol, 311: F817, 2016). […] However, the therapeutic effects of hRLX2 on BPH itself can still be evaluated in aged animal models. We propose that selective injection of hRLX2 (FIG. 20) to the lateral and ventral lobes (corresponding to the transitional zone of the human prostate) or systemic administration could be performed in aged rats or mice. Following treatment, the prostates could be evaluated histologically for morphological changes such as smooth muscle or extracellular matrix content, signs of inflammation (e.g., mast cell infiltration, edema) or epithelial damage, as that observed in preliminary studies (FIG. 21).

[7] = test system: C57Bl/6 mice with chronic radiation cystitis; assay: Urine spot analysis of irradiated mice; format: in vivo, mouse
Experimental: FIG. 16. Urine spot analysis from irradiated mice with and without hRLX2 therapy. Mice were placed in metabolic cages with Whatman paper on the floor for 2 hours between 11 AM and 2 PM without access to food and water. Upon completion, filter papers were collected and photographed under UV light.
Thus, our assessment is that the therapeutic dose of hRLX2 is likely between 80 and 400 μg/kg/day.

[8] = clinical trials in acute heart failure and scleroderma; as high as 250 μg/kg/day; cited from earlier work
aged rat bladder [9] = assay: Collagen staining and collagen:tissue ratio in aged and adult rat bladder sections; format: in vivo; details: for collagen:tissue ratio / bladder collagen content / deposition: 400 μg/kg/day for 14 days; for bladder collagen content / deposition: aged rats (male where stated)
Experimental: The other bladder strip was fixed in 10% PFA, embedded in paraffin, cut 5 μm thick, stained for collagen (Sigma HT251) and examined using bright field microscopy (total mag., 400×). The images were obtained at identical conditions and color analysis was performed using the ImageJ software threshold function to discriminate collagen and smooth muscle content.
as §1, §2

[10] = Plasma hRLX2 level in rats; format: in vivo; details: rat, male; SC pump 77 μg/kg/d/14 days
RXFP2 = RXFP2 (Homo sapiens, UniProt Q8WXD0); details: cited from earlier work
Chain of RXFP2 (Q8WXD0 whole entry, species assumed): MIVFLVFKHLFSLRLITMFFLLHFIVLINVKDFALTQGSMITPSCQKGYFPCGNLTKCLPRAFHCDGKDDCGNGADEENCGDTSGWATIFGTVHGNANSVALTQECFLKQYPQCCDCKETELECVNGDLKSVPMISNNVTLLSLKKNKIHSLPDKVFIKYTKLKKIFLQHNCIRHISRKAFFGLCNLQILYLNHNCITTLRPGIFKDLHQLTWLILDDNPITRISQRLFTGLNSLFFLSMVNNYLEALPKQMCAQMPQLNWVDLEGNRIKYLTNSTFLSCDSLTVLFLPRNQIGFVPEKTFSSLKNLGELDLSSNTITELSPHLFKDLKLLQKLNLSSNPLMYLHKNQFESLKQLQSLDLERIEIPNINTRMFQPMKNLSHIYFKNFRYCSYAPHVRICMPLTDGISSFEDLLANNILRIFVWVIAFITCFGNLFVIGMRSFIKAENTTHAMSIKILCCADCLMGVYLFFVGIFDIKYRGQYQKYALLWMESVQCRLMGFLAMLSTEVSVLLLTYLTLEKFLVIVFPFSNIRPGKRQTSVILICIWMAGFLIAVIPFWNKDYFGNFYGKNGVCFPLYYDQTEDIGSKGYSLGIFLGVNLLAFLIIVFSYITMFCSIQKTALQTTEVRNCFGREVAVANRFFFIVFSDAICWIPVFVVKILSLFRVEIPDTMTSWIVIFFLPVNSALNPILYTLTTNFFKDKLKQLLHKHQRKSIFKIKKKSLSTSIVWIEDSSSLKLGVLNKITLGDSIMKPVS

[11] = adult (9 month) male rats, relaxin vs vehicle, 400 μg/kg/day for 14 days

Molecule: human relaxin-2 [hRLX2]
- compliance and force generation (aged rat bladder [1]; 24 month-old Fischer F-344 rats, 400 μg/kg/day sc ALZET pumps, 2 weeks (Example 2)): substantial increases in both compliance and force generation
- active tension generation (aged rat bladder [1]; [11]): increased active tension generation compared to controls
- passive tension profile (aged rat bladder [1]; [11]): no significant difference
- passive tension profile (aged rat bladder [1]; aged (24 month) rats, male where stated, 400 μg/kg/day sc for 14 days): return of passive tension profiles comparable to adults
- passive tension profile (aged rat bladder [1]; aged (24 month) rats, male where stated, 400 μg/kg/day sc for 14 days, listed as Relaxin): return of passive tension profiles comparable to adults
- passive tension profile (aged rat bladder [1]; aged (24 month) rats, male where stated, 400 μg/kg/day sc for 14 days, listed as relaxin): passive tension began increasing at a smaller degree of stretch compared to relaxin treated animals; also recorded: decreased the passive tension profile to that of adult animals
- responses to contractile agonists (ABMA and oxotremorine-M) or depolarization (KCl and EFS) (aged rat bladder [1]; aged and adult rat bladders, relaxin vs sham): no significant change
- tissue compliance (aged rat bladder [1]; aged female rats, 400 μg/kg/day for 14 days): nor was it significantly altered
- active tension generation (aged rat bladder [1]; aged rats, relaxin vs vehicle/sham, 400 μg/kg/day for 14 days): equivocal; also recorded: no significant changes
- active tension / active force generation (length-tension profile) ([2]; 9 weeks post exposure): reversed by relaxin treatment to a profile similar to non-irradiated control mouse bladders; also recorded: increased active force generation
- passive tension (length-tension profile) ([2]; 9 weeks post exposure): reversed by relaxin treatment to a profile similar to non-irradiated control mouse bladders; also recorded: reversed by relaxin
- responses to purinergic agonist (ABMA), depolarization (KCl) or electrical field stimulation (EFS) [2]: no significant change
- contractile response of the detrusor to oxotremorine-M (cholinergic response) ([2]; listed as Relaxin): increased the contractile response of the detrusor to muscarinic receptor agonist, oxotremorine-M
- contractile response of the detrusor to oxotremorine-M (cholinergic response) ([2]; listed as relaxin): an increase in the cholinergic response
- CaV1.2 expression in the detrusor (CaV1.2 [3]): returned by relaxin treatment; also recorded: an increase in the expression of Cav1.2α
- EUS electromyogram: guarding reflex and bursting ([4]; relaxin 400 μg/kg/day sc for 2 weeks from week 7): recovered with relaxin treatment; also recorded: return of a normal guarding reflex and bursting
- cystometry: voiding function and bladder compliance ([4]; relaxin 400 μg/kg/day sc mini-pump for 2 weeks from week 7): abolished overflow incontinence with a return of voiding function and improved bladder compliance
- affinity, RXFP1 versus RXFP2 (RXFP1 and RXFP2 receptor): greater for the RXFP1 than the RXFP2 receptor
- Cav1.2 expression in the detrusor layer (Cav1.2 [5]): increased in aged rat bladders following hRLX2 treatment
- Cav1.2 expression in the detrusor layer (Cav1.2 [5]; listed as Relaxin): increased expression of L-type Ca^2+ channels
- Cav1.2 expression in the detrusor layer (Cav1.2 [5]; listed as relaxin): increased; also recorded: increases in smooth muscle expression of Cav1.2α
- bladder wall histology (urothelium, lamina propria, detrusor layer) (irradiated mouse bladder; relaxin treated): intact urothelium, normal lamina propria and increased thickness of the detrusor layer
- collagen content (irradiated mouse bladder; relaxin vs sham treated): significant decrease in collagen content; also recorded: decreased collagen content
- prostatic urethra histology (inflammation, columnar epithelium disruption, collagen infiltration, internal urethral sphincter damage) [6]: prevented these adverse changes
- urine spot analysis: number of spots and voided volumes ([7]; irradiated mice (10 Gy), 50 μg/kg/day sc osmotic pump, two weeks): small decrease in the number of spots and increase of voided volumes
- urine spot analysis: voiding pattern ([7]; irradiated mice (10 Gy), 400 μg/kg/day): voiding pattern identical to those of non-irradiated controls
- urine spot analysis: voided volumes and number of spots ([7]; irradiated mice, dose not given): increased voided volumes and decreased the number of spots, restoring normal bladder function
- safety for use in humans [8]: validated its safety for use in humans
- collagen:tissue ratio (aged rat bladder [9]; 9 month adult male rats, no significant difference to vehicle): 0.33±0.09
- size of each bladder layer and collagen distribution (aged rat bladder [9]; 9 month old rats, sham vs relaxin treated): not significantly different
- collagen:tissue ratio (aged rat bladder [9]; 24 month aged male rats, p<0.05): 0.36±0.08
- bladder collagen content / deposition (aged rat bladder [9]): decreased by hRLX2 treatment
- bladder collagen content / deposition (aged rat bladder [9]; listed as relaxin): decreased following relaxin treatment; also recorded: significant decrease in collagen content; also recorded: decreases in collagen content
- detrusor layer thickness and collagen infiltration (aged rat bladder [9]; aged rats, relaxin treated vs shams): increased detrusor layer thickness and less collagen infiltration compared to shams
- Plasma level, exogenous [10]: 5,042 ♂ pg/ml

B1: insulin-like peptide-3 (protein, listed as Homo sapiens)
chain: MDPRLPAWALVLLGPALVFALGPAPTPEMREKLCGHHFVRALVRVCGGPRWSTEARRPATGGDQRESHSVSQAGLKLLSSSNPPTLTFQSVGISDVSCYSGWRDDICSMGWWPTVISRWDLACSPCPRPLTITATTVQLPPTLHATAASVAVPNKTC
- affinity for RXFP2 (RXFP2): highest affinity for RXFP2
